Assay results published in ChEMBL document CHEMBL1137558, “Synthesis and biological evaluation of new 2-arylcarbonyl-3-trifluoromethylquinoxaline 1,4-di-N-oxide derivatives and their reduced analogues” (2007).

What was measured:
[1] = Anticancer activity against leukemia cells; assay type: functional; conditions: Homo sapiens, Leukemia cell
[2] = Anticancer activity against nonsmall lung cancer cells; assay type: functional; conditions: Homo sapiens, Cancer cell lines
[3] = Anticancer activity against colon cancer cells; assay type: functional; conditions: Homo sapiens, Cancer cell lines
[4] = Anticancer activity against CNS cancer cells; assay type: functional; conditions: Homo sapiens, Cancer cell lines
[5] = Anticancer activity against melanoma cells; assay type: functional; conditions: Homo sapiens, Melanoma cell
[6] = Anticancer activity against ovarian cancer cells; assay type: functional; conditions: Homo sapiens, Cancer cell lines
[7] = Anticancer activity against renal cancer cells; assay type: functional; conditions: Homo sapiens, Cancer cell lines
[8] = Anticancer activity against prostate cancer cells; assay type: functional; conditions: Homo sapiens, Cancer cell lines
[9] = Anticancer activity against breast cancer cells; assay type: functional; conditions: Homo sapiens, Cancer cell lines
[10] = Anticancer activity against human NCI60 cells; assay type: functional; conditions: for CC50: read-out: LC50 (the source's name)
MCF7 = test: Growth inhibition of MCF7 cells at 100 uM after 48 hrs; assay type: functional, Homo sapiens; design: scale not given: the % may be the effect or the level left
SF-268 = test: Growth inhibition of SF268 cells at 100 uM after 48 hrs; assay type: functional, Homo sapiens; design: scale not given: the % may be the effect or the level left
CCRF-CEM = test: Anticancer activity against CCRF-CEM cells; assay type: functional; conditions: Homo sapiens
MOLT-4 = test: Anticancer activity against MOLT4 cells; assay type: functional; conditions: Homo sapiens
SR = test: Anticancer activity against SR cells; assay type: functional; conditions: Homo sapiens
HL-60 = test: Anticancer activity against HL60 cells; assay type: functional; conditions: Homo sapiens
K562 = test: Anticancer activity against K562 cells; assay type: functional; conditions: Homo sapiens
NCI-H460 = test: Growth inhibition of NCI-H460 cells at 100 uM after 48 hrs; assay type: functional, Homo sapiens; design: scale not given: the % may be the effect or the level left

Structure (SMILES)	GI50 [1]	GI50 [2]	GI50 [3]	GI50 [4]	GI50 [5]	GI50 [6]	GI50 [7]	GI50 [8]	GI50 [9]	GI50 [10]	TGI [10]	CC50 [10]	Activity (MCF7)	Activity (SF-268)	GI50 (CCRF-CEM)	GI50 (MOLT-4)	GI50 (SR)	GI50 (HL-60)	GI50 (K562)	Activity (NCI-H460)
O=C(c1ccc2ccccc2c1)c1c(C(F)(F)F)[n+]([O-])c2cc(F)c(F)cc2[n+]1[O-]	770 nM	3470 nM	1710 nM	2510 nM	2500 nM	3800 nM	2180 nM	1460 nM	2360 nM	2190 nM	6460 nM	23400 nM	–	–	–	–	–	–	–	–
O=C(c1ccco1)c1c(C(F)(F)F)[n+]([O-])c2ccc(F)cc2[n+]1[O-]	300 nM	3130 nM	1060 nM	2350 nM	1560 nM	2030 nM	2410 nM	2600 nM	1330 nM	1620 nM	4270 nM	15800 nM	72%	82%	–	–	–	–	–	–
O=C(c1cccs1)c1c(C(F)(F)F)[n+]([O-])c2cc(C(F)(F)F)ccc2[n+]1[O-]	30 nM	300 nM	150 nM	180 nM	330 nM	200 nM	240 nM	150 nM	180 nM	180 nM	470 nM	1480 nM	–	–	70 nM	20 nM	20 nM	< 10 nM	–	–
O=C(c1ccccc1)c1c(C(F)(F)F)[n+]([O-])c2cc(C(F)(F)F)ccc2[n+]1[O-]	770 nM	1660 nM	1710 nM	1710 nM	1230 nM	1180 nM	1470 nM	1320 nM	1410 nM	1290 nM	2950 nM	8320 nM	–	–	–	–	–	–	–	–
O=C(c1ccccc1)c1c(C(F)(F)F)[n+]([O-])c2ccc(F)cc2[n+]1[O-]	230 nM	800 nM	540 nM	1450 nM	950 nM	1340 nM	1140 nM	530 nM	730 nM	780 nM	2510 nM	9120 nM	–	–	–	–	–	–	–	–
O=C(c1ccccc1)c1c(C(F)(F)F)[n+]([O-])c2ccc(C(F)(F)F)cc2[n+]1[O-]	240 nM	640 nM	460 nM	690 nM	1130 nM	580 nM	330 nM	270 nM	540 nM	510 nM	1230 nM	3890 nM	–	–	–	–	–	–	–	–
O=C(c1cccs1)c1c(C(F)(F)F)[n+]([O-])c2cc(Cl)c(Cl)cc2[n+]1[O-]	20 nM	2040 nM	590 nM	670 nM	940 nM	1160 nM	1600 nM	790 nM	790 nM	740 nM	3020 nM	11000 nM	–	–	< 10 nM	< 10 nM	< 10 nM	–	< 10 nM	–
COc1ccc2c(c1)[n+]([O-])c(C(=O)c1ccc3ccccc3c1)c(C(F)(F)F)[n+]2[O-]	–	800 nM	–	–	–	–	–	–	–	–	–	–	<32%	<32%	–	–	–	–	–	<32%
